From patent US12012615B2, “Method of making induced pluripotent stem cells using p53 inhibitors” (Kyoto University, priority 2008, dated 2024)

How the values were obtained:
p53 [1] = assay: Luciferase reporter driven by a p53-responsive element in HDF; format: cell-based, human; settings: luciferase activity two days after introduction
Source text: (§1) FIGS. 24A-24C show effects of p53 suppression on p21 and Myc. Genes regulated (4 increased and 7 decreased) by p53 suppression were introduced into HDFs together with the four reprogramming factors (FIG. 24A) or the four reprogramming factors and the p53 shRNA (FIG. 24B). On day 24 (FIG. 24A) or day 28 (FIG. 24B) post-transduction, numbers of iPS cell colonies were counted. **; p<0.01 compared to DsRed control (n=3). Luciferase reporters containing responsive elements of p53 or Myc, or that driven by the polymerase II promoter were introduced into HDFs, together with the mock retroviral vector, the p53 shRNA, the four reprogramming factors, or the three factors devoid of Myc. Two days later, luciferase activities were determined (c). **; p<0.01, *; p<0.05 compared to the mock control (n=3).
(§2) The p21 protein binds to Myc and suppresses its transcriptional activity (Kitaura, H. et al., J Biol. Chem., 275(14), 10477-10483 (2000)). This might contribute to the increased efficiency of iPS cell generation by p53-p21 suppression. We evaluated the Myc activity in HDF by introducing luciferase reporters driven by either a p53-responsive element or a Myc responsive element (FIG. 24C). We confirmed the p53 activity was reduced by the shRNA. […] The effect was stronger than that observed with the introduction of the four factors including c-Myc.

HDF = assay: DNA microarray gene expression, control HDF against p53 knockdown HDF; format: cell-based, human
Source text: To elucidate p53 target genes that are responsible for the observed enhancement of iPS cell generation, we compared gene expression between p53 wild-type MEF and p53-null MEF by DNA microarrays, and between control HDF and p53 knockdown HDF. In MEF, 1590 genes increased and 1485 genes decreased >5 fold in p53-null MEF. In HDF, 290 genes increased and 430 genes decreased >5 fold by p53 shRNA. Between mouse and human, eight increased genes are common, including v-myb myeloblastosis viral oncogene homolog (MYB) and a RAS oncogenes family, RAB39B (Table 2).

p53 [2] = assay: p53 protein level by western blot after shRNA transduction; format: cell-based, human; settings: western blot six days after retroviral transduction
Protocol: Retroviral vectors for p53 shRNA or control RNA were transduced into HDFs. Six days after the transduction, p53 protein levels were determined by western blot analyses.
(B) In another experiment, we examined effects of shRNA against human p53 (shRNA2; Stewart S. A. et al. RNA 9(4), 493 (2003)). Retroviral vectors for shRNA expression, pMKO.1-puro (Addgene #8452), pMKO.1-puro p53 shRNA1 (Addgene #10671) and pMKO.1-puro p53 shRNA2 (Addgene #10672; shRNA sequence is shown in SEQ ID NO:28), were obtained from Addgene. Retroviruses for shRNAs, and the four or three reprogramming factors were produced in PLAT-E cells. For iPS cell generation, equal amounts of PLAT-E supematants containing each retrovirus were mixed and transduced to HDF.

Myc = assay: Luciferase reporter driven by a Myc responsive element in HDF; format: cell-based, human; settings: luciferase activity two days after introduction
Source text: as §1, §2

HDFs = assay: Human iPS cell generation with p53 shRNA co-transduction; format: cell-based; settings: co-introduced with the four reprogramming factors
Source text: The retroviral vector expressing either p53 shRNA or control RNA was transduced into HDFs together with the four reprogramming factors. To rescue RNAi-mediated knockdown, a retroviral vector for mouse p53 was co-introduced.

“p53 shRNA2: shRNA against human p53, SEQ ID NO:28, retroviral vector pMKO.1-puro p53 shRNA2 (Addgene #10672) (GACTCCAGTGGTAATCTACTGCTCGAGCAGTAGATTACCACTGGAGTC)” was tested, and the “p53 activity (luciferase reporter)” value (p53 [1]) was “reduced”, the “number of genes decreased >5 fold” value (HDF) was 430 genes and the “number of genes increased >5 fold” value (HDF) was 290 genes. The p53 protein level (p53 [2]) was “effectively suppressed”, the “Myc activity (luciferase reporter)” value (Myc) was “significantly enhanced” and the “numbers of human iPS cell colonies” value (HDFs) was “markedly increased”.
